Test: Kinematic viscosity of non-volatile hydrocarbon oil
Format: physicochemical
Conditions: viscosity measuring temperature 40 ° C.
Text: The “kinematic viscosity” is a value obtained by converting a viscosity (mPa·s) measured according to “Method II Viscosity measurement by rotational viscometer (2.12 Single cylinder-type rotational viscometer (Brookfield type viscometer)” in “2.53 Viscosity Determination” of General Tests in “Japanese Pharmacopoeia 17th Edition” into a kinematic viscosity.

Question: For `CC(C)CCCC(C)CCCC(C)CCCCC(C)CCCC(C)CCCC(C)C` (stereo not shown) [SQUALANE], which Kinematic viscosity is on record?
Answer: Its Kinematic viscosity is 20.5 mm^2/s.
